Measured values reported in ChEMBL document CHEMBL5126669, “Discovery of 5,7-Dihydro-6H-pyrrolo[2,3-d]pyrimidin-6-ones as Highly Selective CDK2 Inhibitors” (ACS Med Chem Lett, 2022).
One block for each compound: values may come before it.

Tests used:
[1] = target: Cyclin-dependent kinase 2/cyclin E1 (Homo sapiens, UniProt P24941); experiment: Inhibition of recombinant human N-terminal GST-tagged full-length CDK2/Flag-tagged cyclinE1 expressed in baculovirus expression system using eIF4E-binding protein-1 peptide as substrate incubated for 1 hr in presence of ATP by HTRF assay
Cytochrome P450 2C9 = Cytochrome P450 2C9 (Homo sapiens, UniProt P11712); experiment: Inhibition of CYP2C9 (unknown origin) at >25 uM; assay type: ADME
[2] = Volume of distribution at steady state in Sprague-Dawley rat at 0.5 mg/kg, iv measured upto 24 hrs by LC-MS/MS analysis; assay type: ADME, organism-based; details: Sprague-Dawley, in vivo, read-out: Vdss
[3] = target: Cyclin-dependent kinase 2 (Homo sapiens, UniProt P24941); experiment: Inhibition of CDK2 in human COV318 cells incubated for overnight in presence of human whole blood by HTRF assay; assay type: cell-based
[4] = AUC in Sprague-Dawley rat at 3 mg/kg, po measured upto 24 hrs by LC-MS/MS analysis; assay type: ADME, organism-based; design: dose 3 mg/kg, time < 24 hrs, route po; details: in vivo
Cytochrome P450 1A2 = target: T1, Cytochrome P450 1A2 (Homo sapiens, UniProt P05177); experiment: Inhibition of CYP1A2 (unknown origin) at >25 uM; assay type: ADME
T1 sequence (P05177 whole entry): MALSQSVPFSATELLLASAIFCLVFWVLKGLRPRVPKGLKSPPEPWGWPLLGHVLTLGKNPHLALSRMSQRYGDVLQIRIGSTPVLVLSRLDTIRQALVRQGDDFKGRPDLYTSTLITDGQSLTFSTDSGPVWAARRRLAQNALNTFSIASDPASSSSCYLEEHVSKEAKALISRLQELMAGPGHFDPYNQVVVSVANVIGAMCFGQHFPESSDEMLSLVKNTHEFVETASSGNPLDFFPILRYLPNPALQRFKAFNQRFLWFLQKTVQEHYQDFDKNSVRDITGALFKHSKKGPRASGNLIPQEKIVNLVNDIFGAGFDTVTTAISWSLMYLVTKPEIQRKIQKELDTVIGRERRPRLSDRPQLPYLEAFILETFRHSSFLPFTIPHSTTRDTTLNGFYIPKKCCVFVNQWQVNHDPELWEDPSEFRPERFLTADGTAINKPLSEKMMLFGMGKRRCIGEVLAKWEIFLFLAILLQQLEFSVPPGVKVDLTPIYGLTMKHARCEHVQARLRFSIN

Cytochrome P450 2C8 = target: T2, Cytochrome P450 2C8 (Homo sapiens, UniProt P10632); experiment: Inhibition of CYP2C8 (unknown origin) at >25 uM; assay type: ADME
T2 sequence (P10632 whole entry): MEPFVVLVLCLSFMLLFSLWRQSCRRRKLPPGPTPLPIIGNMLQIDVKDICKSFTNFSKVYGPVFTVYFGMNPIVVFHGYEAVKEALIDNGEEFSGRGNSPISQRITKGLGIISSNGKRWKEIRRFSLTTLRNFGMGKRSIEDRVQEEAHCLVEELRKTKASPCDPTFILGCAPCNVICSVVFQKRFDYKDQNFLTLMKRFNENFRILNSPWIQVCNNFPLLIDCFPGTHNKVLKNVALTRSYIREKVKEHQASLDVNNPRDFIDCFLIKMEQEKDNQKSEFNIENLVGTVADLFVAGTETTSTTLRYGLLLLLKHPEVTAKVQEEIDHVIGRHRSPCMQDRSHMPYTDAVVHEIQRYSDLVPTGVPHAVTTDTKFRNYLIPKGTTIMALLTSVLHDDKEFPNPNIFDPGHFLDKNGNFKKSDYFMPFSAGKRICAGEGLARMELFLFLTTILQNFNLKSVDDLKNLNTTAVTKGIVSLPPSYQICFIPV

[5] = Hepatic blood flow in Sprague-Dawley rat at 0.5 mg/kg, iv measured upto 24 hrs by LC-MS/MS analysis; assay type: ADME, organism-based; details: in vivo
[6] = Cmax in Sprague-Dawley rat at 3 mg/kg, po measured upto 24 hrs by LC-MS/MS analysis; assay type: ADME, organism-based; design: dose 3 mg/kg, time < 24 hrs, route po; details: in vivo
hERG (KCNH2) = hERG (KCNH2) (Homo sapiens, UniProt Q12809); experiment: Displacement of [3H]Dofetilide from human ERG at 10 uM incubated for 24 hrs by filter binding assay relative to control; assay type: toxicity; details: probe [3H]dofetilide
[7] = Cmax in Cynomolgus monkey at 2 mg/kg, po measured upto 24 hrs by LC-MS/MS analysis; assay type: ADME, organism-based, Macaca fascicularis; design: dose 2 mg/kg, time < 24 hrs, route po; details: in vivo
Cytochrome P450 2B6 = target: T3, Cytochrome P450 2B6 (Homo sapiens, UniProt P20813); experiment: Inhibition of CYP2B6 (unknown origin) at >25 uM; assay type: ADME
T3 sequence (P20813 whole entry): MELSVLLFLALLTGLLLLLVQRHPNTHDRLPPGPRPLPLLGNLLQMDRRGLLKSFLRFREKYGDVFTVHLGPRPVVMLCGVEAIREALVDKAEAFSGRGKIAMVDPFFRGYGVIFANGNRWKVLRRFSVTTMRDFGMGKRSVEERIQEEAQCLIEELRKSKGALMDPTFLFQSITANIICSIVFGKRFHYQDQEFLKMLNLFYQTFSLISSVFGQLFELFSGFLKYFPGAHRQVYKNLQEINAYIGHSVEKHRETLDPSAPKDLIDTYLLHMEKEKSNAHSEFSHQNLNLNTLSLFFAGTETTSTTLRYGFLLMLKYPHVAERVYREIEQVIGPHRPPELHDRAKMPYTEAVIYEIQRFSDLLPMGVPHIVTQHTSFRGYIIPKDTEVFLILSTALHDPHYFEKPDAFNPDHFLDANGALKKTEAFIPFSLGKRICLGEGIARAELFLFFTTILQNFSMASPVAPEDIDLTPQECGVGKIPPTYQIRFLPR

[8] = Intrinsic clearance in human liver microsomes at 1 uM measured upto 30 mins by LC/MS analysis; assay type: ADME, Microsome; details: read-out: CLH (converted)
[9] = Oral bioavailability in Cynomolgus monkey at 2 mg/kg measured upto 24 hrs by LC-MS/MS analysis; assay type: ADME, organism-based, Macaca fascicularis; details: in vivo
[10] = AUC in Cynomolgus monkey at 2 mg/kg, po measured upto 24 hrs by LC-MS/MS analysis; assay type: ADME, organism-based, Macaca fascicularis; design: dose 2 mg/kg, time < 24 hrs, route po; details: in vivo
[11] = Volume of distribution at steady state in Cynomolgus monkey at 0.3 mg/kg, iv measured upto 24 hrs by LC-MS/MS analysis; assay type: ADME, organism-based, Macaca fascicularis; details: in vivo, read-out: Vdss
[12] = Oral bioavailability in Sprague-Dawley rat at 3 mg/kg measured upto 24 hrs by LC-MS/MS analysis; assay type: ADME, organism-based; details: in vivo
[13] = Hepatic blood flow in Cynomolgus monkey at 0.3 mg/kg, iv measured upto 24 hrs by LC-MS/MS analysis; assay type: ADME, organism-based, Macaca fascicularis; details: in vivo
Cytochrome P450 2C19 = Cytochrome P450 2C19 (Homo sapiens, UniProt P33261); experiment: Inhibition of CYP2C19 (unknown origin) at >25 uM; assay type: ADME
Cytochrome P450 2D6 = Cytochrome P450 2D6 (Homo sapiens, UniProt P10635); experiment: Inhibition of CYP2D6 (unknown origin) at >25 uM; assay type: ADME
Cytochrome P450 3A4 = Cytochrome P450 3A4 (Homo sapiens, UniProt P08684); experiment: Inhibition of CYP3A4 (unknown origin) at >25 uM; assay type: ADME
[14] = Inhibition of CDK1/cyclin B (unknown origin) in presence of ATP; design: species or system Homo sapiens
Homo sapiens [15] = organism: Homo sapiens; experiment: Selectivity ratio of IC50 for inhibition of CDK1/cyclin B (unknown origin) to IC50 for inhibition recombinant human N-terminal GST-tagged full-length CDK2/Flag-tagged cyclinE1 expressed in baculovirus expression system
Homo sapiens [16] = organism: Homo sapiens; experiment: Selectivity ratio of IC50 for inhibition of CDK6/cyclin D1 (unknown origin) to IC50 for inhibition recombinant human N-terminal GST-tagged full-length CDK2/Flag-tagged cyclinE1 expressed in baculovirus expression system
Homo sapiens [17] = organism: Homo sapiens; experiment: Selectivity ratio of IC50 for inhibition of CDK4/cyclin D1 (unknown origin) to IC50 for inhibition recombinant human N-terminal GST-tagged full-length CDK2/Flag-tagged cyclinE1 expressed in baculovirus expression system
Homo sapiens [18] = organism: Homo sapiens; experiment: Selectivity ratio of IC50 for inhibition of CDK1 in human OVCAR3 cells to IC50 for inhibition of CDK2 in human COV318 cells; assay type: cell-based

Chain of Cytochrome P450 3A4 (P08684 whole entry): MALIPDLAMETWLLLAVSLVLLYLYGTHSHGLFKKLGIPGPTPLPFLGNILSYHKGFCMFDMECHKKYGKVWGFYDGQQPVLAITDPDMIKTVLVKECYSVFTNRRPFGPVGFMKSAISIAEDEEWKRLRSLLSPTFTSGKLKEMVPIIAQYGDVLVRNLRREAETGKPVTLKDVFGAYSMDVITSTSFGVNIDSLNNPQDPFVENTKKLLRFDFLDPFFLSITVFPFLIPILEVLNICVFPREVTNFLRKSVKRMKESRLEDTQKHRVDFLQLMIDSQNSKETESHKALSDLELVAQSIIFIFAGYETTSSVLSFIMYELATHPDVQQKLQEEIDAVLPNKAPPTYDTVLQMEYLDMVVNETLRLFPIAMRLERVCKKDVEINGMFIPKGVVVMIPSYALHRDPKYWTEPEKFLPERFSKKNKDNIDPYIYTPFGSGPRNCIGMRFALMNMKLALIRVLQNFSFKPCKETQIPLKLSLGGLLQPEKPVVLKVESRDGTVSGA
Chain of Cytochrome P450 2C19 (P33261 whole entry): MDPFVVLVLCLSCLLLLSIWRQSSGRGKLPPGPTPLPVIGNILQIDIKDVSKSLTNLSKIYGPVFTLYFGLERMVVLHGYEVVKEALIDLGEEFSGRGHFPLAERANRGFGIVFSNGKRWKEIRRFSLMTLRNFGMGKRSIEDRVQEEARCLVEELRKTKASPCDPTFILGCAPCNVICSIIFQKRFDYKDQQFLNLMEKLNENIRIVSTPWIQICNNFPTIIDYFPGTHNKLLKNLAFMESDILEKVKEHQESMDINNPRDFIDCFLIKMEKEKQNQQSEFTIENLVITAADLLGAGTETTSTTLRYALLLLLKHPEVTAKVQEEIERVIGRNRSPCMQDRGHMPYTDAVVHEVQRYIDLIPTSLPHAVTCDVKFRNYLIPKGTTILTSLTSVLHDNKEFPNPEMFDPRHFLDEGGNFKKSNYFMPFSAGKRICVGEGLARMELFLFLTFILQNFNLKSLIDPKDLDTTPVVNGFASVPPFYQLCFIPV
Chain of Cytochrome P450 2D6 (P10635 whole entry): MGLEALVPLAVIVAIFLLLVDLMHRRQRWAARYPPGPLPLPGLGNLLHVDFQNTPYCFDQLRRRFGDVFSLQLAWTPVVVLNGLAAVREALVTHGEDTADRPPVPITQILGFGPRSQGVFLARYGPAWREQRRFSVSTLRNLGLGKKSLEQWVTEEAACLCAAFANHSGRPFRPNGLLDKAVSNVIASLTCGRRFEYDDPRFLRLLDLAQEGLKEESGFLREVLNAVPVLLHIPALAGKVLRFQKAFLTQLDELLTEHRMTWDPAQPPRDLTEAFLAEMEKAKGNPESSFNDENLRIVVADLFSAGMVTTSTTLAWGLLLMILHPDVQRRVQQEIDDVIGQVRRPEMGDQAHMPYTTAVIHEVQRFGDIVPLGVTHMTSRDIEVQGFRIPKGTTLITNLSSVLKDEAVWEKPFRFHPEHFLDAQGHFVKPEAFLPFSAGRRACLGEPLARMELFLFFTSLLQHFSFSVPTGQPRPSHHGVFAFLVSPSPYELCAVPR
Chain of Cytochrome P450 2C9 (P11712 whole entry): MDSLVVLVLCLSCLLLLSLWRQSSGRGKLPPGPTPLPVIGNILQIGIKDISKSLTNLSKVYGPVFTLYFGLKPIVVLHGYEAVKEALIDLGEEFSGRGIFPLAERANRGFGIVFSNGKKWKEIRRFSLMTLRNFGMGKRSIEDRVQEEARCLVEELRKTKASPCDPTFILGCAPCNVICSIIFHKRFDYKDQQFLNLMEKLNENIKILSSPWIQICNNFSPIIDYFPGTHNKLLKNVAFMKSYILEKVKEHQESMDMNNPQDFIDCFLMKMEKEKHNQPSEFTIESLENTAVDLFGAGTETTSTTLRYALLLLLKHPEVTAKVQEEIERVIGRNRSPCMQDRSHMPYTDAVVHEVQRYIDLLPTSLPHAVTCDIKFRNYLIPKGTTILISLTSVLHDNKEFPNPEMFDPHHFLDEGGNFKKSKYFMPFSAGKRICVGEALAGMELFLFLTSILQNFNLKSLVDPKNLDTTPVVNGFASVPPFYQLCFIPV
Chain of hERG (KCNH2) (Q12809 whole entry): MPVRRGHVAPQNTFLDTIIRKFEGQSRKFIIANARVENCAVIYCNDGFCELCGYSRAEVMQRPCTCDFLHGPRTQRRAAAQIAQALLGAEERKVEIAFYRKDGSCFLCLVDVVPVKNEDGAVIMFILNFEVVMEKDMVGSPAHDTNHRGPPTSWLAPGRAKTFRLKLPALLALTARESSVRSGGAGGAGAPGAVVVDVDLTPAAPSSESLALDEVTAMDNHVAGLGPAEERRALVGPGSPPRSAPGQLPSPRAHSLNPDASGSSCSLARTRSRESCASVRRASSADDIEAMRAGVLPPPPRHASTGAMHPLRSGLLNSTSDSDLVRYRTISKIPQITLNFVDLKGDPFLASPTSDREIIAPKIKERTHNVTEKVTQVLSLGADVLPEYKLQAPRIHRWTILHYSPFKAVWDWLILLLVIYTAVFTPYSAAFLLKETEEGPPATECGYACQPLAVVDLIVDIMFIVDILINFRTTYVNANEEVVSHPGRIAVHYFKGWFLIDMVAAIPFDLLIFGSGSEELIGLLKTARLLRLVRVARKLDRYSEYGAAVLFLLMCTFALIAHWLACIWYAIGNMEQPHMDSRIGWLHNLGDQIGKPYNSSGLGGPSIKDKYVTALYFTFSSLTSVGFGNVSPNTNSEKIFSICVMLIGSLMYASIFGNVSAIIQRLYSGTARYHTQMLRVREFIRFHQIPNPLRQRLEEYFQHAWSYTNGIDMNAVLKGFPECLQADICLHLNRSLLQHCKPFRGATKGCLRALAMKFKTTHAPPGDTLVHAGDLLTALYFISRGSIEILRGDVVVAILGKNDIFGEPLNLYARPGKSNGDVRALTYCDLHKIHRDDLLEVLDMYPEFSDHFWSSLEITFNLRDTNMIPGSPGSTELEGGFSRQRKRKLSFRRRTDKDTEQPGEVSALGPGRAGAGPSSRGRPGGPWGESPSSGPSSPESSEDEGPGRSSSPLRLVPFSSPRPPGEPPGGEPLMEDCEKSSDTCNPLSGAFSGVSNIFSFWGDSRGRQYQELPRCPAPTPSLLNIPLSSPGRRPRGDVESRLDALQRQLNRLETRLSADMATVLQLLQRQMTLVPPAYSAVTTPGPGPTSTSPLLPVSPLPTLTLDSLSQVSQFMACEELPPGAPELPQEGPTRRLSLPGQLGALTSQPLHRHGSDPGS

SMILES: C[C@@H]1CCC[C@H]1N1C(=O)C2(CC2)c2cnc(Nc3ccc(S(=O)(=O)NCCO)cc3)nc21 (relative stereo)
IC50 [3]: 770 nM
Ratio IC50 (Homo sapiens [15]): 250
Ratio IC50 (Homo sapiens [16]): 28
IC50 [1]: 1.8 nM
predicted hepatic clearance at 1 µM [8]: > 18.3 mL/min/kg
Ratio IC50 (Homo sapiens [17]): 29

SMILES: Cc1nn(C)cc1-c1ccnc(Nc2ccc(S(=O)(=O)N3CCOCC3)cc2)n1
IC50 [1]: 431 nM

SMILES: CNS(=O)(=O)c1ccc(Nc2ncc3c(n2)N([C@@H](C)C2CC2)C(=O)C32CC2)cc1
IC50 [3]: 460 nM
Ratio IC50 (Homo sapiens [15]): 480
Ratio IC50 (Homo sapiens [16]): 24
IC50 [1]: 1.6 nM
predicted hepatic clearance at 1 µM [8]: 11.7 mL/min/kg
Ratio IC50 (Homo sapiens [17]): 29

SMILES: CS(=O)(=O)N1CCC(Nc2ncc3c(n2)N(C2CCCCC2)C(=O)C32CC2)CC1
IC50 [14]: > 5000 nM
IC50 [1]: 82 nM

SMILES: Cc1nn2cnc3[nH]ccc3c2c1C1CCCCC1
IC50 [1]: 2800 nM

Continued, in another order:

IC50 [1]: 1610 nM
SMILES: CS(=O)(=O)N1CCC(Nc2ncc3c(n2)N(c2ccccc2)C(=O)C32CC2)CC1

IC50 [1]: 2200 nM
SMILES: CS(=O)(=O)N1CCC(Nc2ncc3c(n2)N(C2CCOCC2)C(=O)C32CC2)CC1

inhibition (INH) (Cytochrome P450 2C9): Active
Vd [2]: 1.1 L/kg
IC50 [3]: 642 nM
AUC at 24 h [4]: 1.15 µM·h
inhibition (INH) (Cytochrome P450 1A2): Active
inhibition (INH) (Cytochrome P450 2C8): Active
QH [5]: > 100%
Cmax [6]: 992 nM
Cmax [7]: 138 nM
inhibition (INH) (Cytochrome P450 2B6): Active
predicted hepatic clearance at 1 µM [8]: 11.7 mL/min/kg
bioavailability [9]: 100%
AUC at 24 h [10]: 0.739 µM·h
Vd [11]: 3.5 L/kg
bioavailability [12]: 100%
QH [13]: 70%
inhibition (INH) (Cytochrome P450 2C19): Active
inhibition (INH) (Cytochrome P450 2D6): Active
inhibition (INH) (Cytochrome P450 3A4): Active
SMILES: [2H]C([2H])([2H])NS(=O)(=O)c1ccc(Nc2ncc3c(n2)N([C@@H]2CCC[C@@H](O)C2)C(=O)C32CC2)cc1
inhibition at 24 h, 10 µM (hERG (KCNH2)): 9.7%

IC50 [14]: > 5000 nM
IC50 [1]: 87 nM
SMILES: CC1(C)C(=O)N(C2CCCC2)c2nc(NC3CCN(S(C)(=O)=O)CC3)ncc21

IC50 [14]: 1690 nM
IC50 [1]: 23 nM
SMILES: CC[C@@H](C(F)F)N1C(=O)C2(CC2)c2cnc(NC3CCN(S(C)(=O)=O)CC3)nc21
Ratio IC50 (Homo sapiens [18]): 74

IC50 [14]: > 5000 nM
IC50 [1]: 236 nM
SMILES: CS(=O)(=O)N1CCC(Nc2ncc3c(n2)N(C2CCCC2)C(=O)C32CCC2)CC1
